For one assay, the system named is HIV-1 (HIVIIIB) replication in MT2 cell line. Kind of assay: HIV-1 replication in MT2 cell line with and without 30% human serum (viral RT activity in supernatant). Format: cell-based. The note with it: Human immunodeficiency virus 1, MT2 cells, with 30% human serum, average IC50 if tested more than once, read-out: MT2 (HIVIIIB) with HS 30% IC50 range. In a few lines: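 Read-out is supernatant reverse transcriptase activity on day 5 post-infection, giving IC50 and IC90. Compounds were titrated in complete medium ± 30% human serum, re-dosed after 3 days, on MT2 cells exposed for 3 h to HIVIIIB at MOI 0.5 then washed.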
In the case of `CC(C)C1=C2C3CCC4[C@@]5(C)CC[C@H](OC(=O)CC(C)(C)C(=O)O)C(C)(C)C5CC[C@@]4(C)[C@]3(C)CC[C@@]2(NC(=O)Cc2ccccc2)CC1=O` (stereo partly drawn) [19-29, 3β-O-(3′,3′-Dimethylsuccinyl)-17β-phenylacetamido-21-oxolup-18-ene], the concentration for half-maximal inhibition (IC50) (commonly the concentration that gives 50% inhibition) is under 0.199 µM.

For the compound `CC(C)C1=C2C3CCC4[C@@]5(C)CC[C@H](OC(=O)CC(C)(C)C(=O)O)C(C)(C)C5CC[C@@]4(C)[C@]3(C)CC[C@@]2(NC(=O)C2CCOCC2)CC1=O` (stereo partly drawn) [19-30, 3β-O-(3′,3′-Dimethylsuccinyl)-17β-tetrahydro-pyran-4-carbonylamino-21-oxolup-18-ene], the IC50 was under 0.199 µM.

As for `CC(C)C(=O)N[C@@]12CC[C@]3(C)C(CCC4[C@@]5(C)CC[C@H](OC(=O)CC(C)(C)C(=O)O)C(C)(C)C5CC[C@]43C)C1=C(C(C)C)C(=O)C2` (stereo partly drawn) [19-31, 3β-O-(3′,3′-Dimethylsuccinyl)-17β-isopropylamido-21-oxolup-18-ene], the IC50 is under 0.199 µM.

In the case of `CC(C)C1=C2C3CCC4[C@@]5(C)CC[C@H](OC(=O)CC(C)(C)C(=O)O)C(C)(C)C5CC[C@@]4(C)[C@]3(C)CC[C@@]2(NC(=O)C(C)(C)C)CC1=O` (stereo partly drawn) [19-32, 3β-O-(3′,3′-Dimethylsuccinyl)-17β-tert-butylamido-21-oxolup-18-ene], the IC50 was under 0.199 µM.

Regarding `CC(C)C1=C2C3CCC4[C@@]5(C)CC[C@H](OC(=O)CC(C)(C)C(=O)O)C(C)(C)C5CC[C@@]4(C)[C@]3(C)CC[C@@]2(NC(=O)C2CCCCC2)CC1=O` (stereo partly drawn) [19-33, 3β-O-(3′,3′-Dimethylsuccinyl)-17β-cyclohexylamido-21-oxolup-18-ene], the IC50 was under 0.199 µM.

As for `CC(C)C1=C2[C@H]3CC[C@@H]4[C@@]5(C)CC[C@H](OC(=O)CC(C)(C)C(=O)O)C(C)(C)[C@@H]5CC[C@@]4(C)[C@]3(C)CC[C@@]2(NC(=O)c2ccnn2C)CC1=O` [19-34, 3β-O-(3′,3′-Dimethylsuccinyl)-17β-(1-methyl-1H-pyrazole-5-amido)-21-oxolup-18-ene], the IC50 is under 0.199 µM.

Consider `CC(C)C1=C2[C@H]3CC[C@@H]4[C@@]5(C)CC[C@H](OC(=O)CC(C)(C)C(=O)O)C(C)(C)[C@@H]5CC[C@@]4(C)[C@]3(C)CC[C@@]2(NC(=O)c2cnn(C)c2)CC1=O` [19-35, 3β-O-(3′,3′-Dimethylsuccinyl)-17β-(1-methyl-1H-pyrazole-4-amido)-21-oxolup-18-ene], for which the IC50 was under 0.199 µM.

For `CC(C)C1=C2[C@H]3CC[C@@H]4[C@@]5(C)CC[C@H](OC(=O)CC(C)(C)C(=O)O)C(C)(C)[C@@H]5CC[C@@]4(C)[C@]3(C)CC[C@@]2(NC(=O)C2CCN(C)CC2)CC1=O` [19-36, 3β-O-(3′,3′-Dimethylsuccinyl)-17β-(1-methylpiperidine-4-amido)-21-oxolup-18-ene], the IC50 is under 0.199 µM.

On to `CC(C)C1=C2[C@H]3CC[C@@H]4[C@@]5(C)CC[C@H](OC(=O)CC(C)(C)C(=O)O)C(C)(C)[C@@H]5CC[C@@]4(C)[C@]3(C)CC[C@@]2(NC(=O)CCN2CCCC2)CC1=O` [19-37, 3β-O-(3′,3′-Dimethylsuccinyl)-17β-(3-pyrrolidin-1-yl-propionamido)-21-oxolup-18-ene], for which the IC50 is under 0.199 µM.

For `CC(C)C1=C2[C@H]3CC[C@@H]4[C@@]5(C)CC[C@H](OC(=O)CC(C)(C)C(=O)O)C(C)(C)[C@@H]5CC[C@@]4(C)[C@]3(C)CC[C@@]2(NC(=O)CN2CCCC2)CC1=O` [19-38, 3β-O-(3′,3′-Dimethylsuccinyl)-17β-(2-pyrrolidin-1-yl-acetamido)-21-oxolup-18-ene], the concentration for half-maximal inhibition (IC50) was under 0.199 µM.

With `CC(C)C1=C2[C@H]3CC[C@@H]4[C@@]5(C)CC[C@H](OC(=O)CC(C)(C)C(=O)O)C(C)(C)[C@@H]5CC[C@@]4(C)[C@]3(C)CC[C@@]2(NC(=O)CCCN2CCCC2)CC1=O` [19-39, 3β-O-(3′,3′-Dimethylsuccinyl)-17β-(4-pyrrolidin-1-yl-butyramido)-21-oxolup-18-ene], the IC50 is under 0.199 µM.

Consider `CC(C)C1=C2[C@H]3CC[C@@H]4[C@@]5(C)CC[C@H](OC(=O)CC(C)(C)C(=O)O)C(C)(C)[C@@H]5CC[C@@]4(C)[C@]3(C)CC[C@@]2(NC(=O)CCN2CCCCC2)CC1=O` [19-40, 3β-O-(3′,3′-Dimethylsuccinyl)-17β-(3-piperidin-1-yl-propionamido)-21-oxolup-18-ene], for which the IC50 is under 0.199 µM.

For `CC(C)C1=C2[C@H]3CC[C@@H]4[C@@]5(C)CC[C@H](OC(=O)CC(C)(C)C(=O)O)C(C)(C)[C@@H]5CC[C@@]4(C)[C@]3(C)CC[C@@]2(NC(=O)CCN2CCCC2=O)CC1=O` [19-41, 3β-O-(3′,3′-Dimethylsuccinyl)-17β-[3-(2-oxo-pyrrolidin-1-yl)-propionamido]-21-oxolup-18-ene], the IC50 is under 0.199 µM.

Take `CC(C)C1=C2[C@H]3CC[C@@H]4[C@@]5(C)CC[C@H](OC(=O)CC(C)(C)C(=O)O)C(C)(C)[C@@H]5CC[C@@]4(C)[C@]3(C)CC[C@@]2(NC(=O)[C@@H]2CCCN2C)CC1=O` [19-42]: the IC50 was under 0.199 µM.

Consider `Cc1ccc(C(=O)N[C@@]23CC[C@]4(C)[C@H](CC[C@@H]5[C@@]6(C)CC[C@H](OC(=O)CC(C)(C)C(=O)O)C(C)(C)[C@@H]6CC[C@]54C)C2=C(C(C)C)C(=O)C3)cc1` [19-43, 3β-O-(3′,3′-Dimethylsuccinyl)-17β-(4-methylbenzamido)-21-oxolup-18-ene], for which the half-maximal inhibitory concentration (IC50) was under 0.199 µM.

Turning to `Cc1cccc(C(=O)N[C@@]23CC[C@]4(C)[C@H](CC[C@@H]5[C@@]6(C)CC[C@H](OC(=O)CC(C)(C)C(=O)O)C(C)(C)[C@@H]6CC[C@]54C)C2=C(C(C)C)C(=O)C3)c1` [19-44, 3β-O-(3′,3′-Dimethylsuccinyl)-17β-(3-methylbenzamido)-21-oxolup-18-ene], the IC50 is under 0.199 µM.

Take `Cc1ccccc1C(=O)N[C@@]12CC[C@]3(C)[C@H](CC[C@@H]4[C@@]5(C)CC[C@H](OC(=O)CC(C)(C)C(=O)O)C(C)(C)[C@@H]5CC[C@]43C)C1=C(C(C)C)C(=O)C2` [19-45, 3β-O-(3′,3′-Dimethylsuccinyl)-17β-(2-methylbenzamido)-21-oxolup-18-ene]: the IC50 is under 0.199 µM.

In the case of `Cc1ncccc1C(=O)N[C@@]12CC[C@]3(C)[C@H](CC[C@@H]4[C@@]5(C)CC[C@H](OC(=O)CC(C)(C)C(=O)O)C(C)(C)[C@@H]5CC[C@]43C)C1=C(C(C)C)C(=O)C2` [19-46, 3β-O-(3′,3′-Dimethylsuccinyl)-17β-(2-methylpyridin-3-yl)amido-21-oxolup-18-ene], the concentration for half-maximal inhibition (IC50) was under 0.199 µM.

On to `Cc1cncc(C(=O)N[C@@]23CC[C@]4(C)[C@H](CC[C@@H]5[C@@]6(C)CC[C@H](OC(=O)CC(C)(C)C(=O)O)C(C)(C)[C@@H]6CC[C@]54C)C2=C(C(C)C)C(=O)C3)c1` [19-47, 3β-O-(3′,3′-Dimethylsuccinyl)-17β-(5-methylpyridin-3-yl)amido-21-oxolup-18-ene], for which the IC50 is under 0.199 µM.

For the compound `Cc1ccc(C(=O)N[C@@]23CC[C@]4(C)[C@H](CC[C@@H]5[C@@]6(C)CC[C@H](OC(=O)CC(C)(C)C(=O)O)C(C)(C)[C@@H]6CC[C@]54C)C2=C(C(C)C)C(=O)C3)cn1` [19-48, 3β-O-(3′,3′-Dimethylsuccinyl)-17β-(6-methylpyridin-3-yl)amido-21-oxolup-18-ene], the IC50 is under 0.199 µM.

On to `Cc1ccncc1C(=O)N[C@@]12CC[C@]3(C)[C@H](CC[C@@H]4[C@@]5(C)CC[C@H](OC(=O)CC(C)(C)C(=O)O)C(C)(C)[C@@H]5CC[C@]43C)C1=C(C(C)C)C(=O)C2` [19-49, 3β-O-(3′,3′-Dimethylsuccinyl)-17β-(4-methylpyridin-3-yl)amido-21-oxolup-18-ene], for which the IC50 is under 0.199 µM.

Turning to `CC(C)C1=C2[C@H]3CC[C@@H]4[C@@]5(C)CC[C@H](OC(=O)CC(C)(C)C(=O)O)C(C)(C)[C@@H]5CC[C@@]4(C)[C@]3(C)CC[C@@]2(NC(=O)c2cnccc2O)CC1=O` [19-50, 3β-O-(3′,3′-Dimethylsuccinyl)-17β-(4-hydroxypyridine-3-yl)amido-21-oxolup-18-ene], the IC50 is under 0.199 µM.

Turning to `CC(C)C1=C2[C@H]3CC[C@@H]4[C@@]5(C)CC[C@H](OC(=O)CC(C)(C)C(=O)O)C(C)(C)[C@@H]5CC[C@@]4(C)[C@]3(C)CC[C@@]2(NC(=O)c2cccnc2O)CC1=O` [19-51, 3β-O-(3′,3′-Dimethylsuccinyl)-17β-(2-hydroxypyridin-3-yl)amido-21-oxolup-18-ene], the IC50 is under 0.199 µM.

Consider `Cc1cc(C(=O)N[C@@]23CC[C@]4(C)[C@H](CC[C@@H]5[C@@]6(C)CC[C@H](OC(=O)CC(C)(C)C(=O)O)C(C)(C)[C@@H]6CC[C@]54C)C2=C(C(C)C)C(=O)C3)ccn1` [19-52, 3β-O-(3′,3′-Dimethylsuccinyl)-17β-(2-methylpyridin-4-yl)amido-21-oxolup-18-ene], for which the IC50 is under 0.199 µM.

In the case of `CC(C)C1=C2[C@H]3CC[C@@H]4[C@@]5(C)CC[C@H](OC(=O)CC(C)(C)C(=O)O)C(C)(C)[C@@H]5CC[C@@]4(C)[C@]3(C)CC[C@@]2(NC(=O)CN(C)C)CC1=O` [19-53, 3β-O-(3′,3′-Dimethylsuccinyl)-17β-(2-dimethylamino-acetamido)-21-oxolup-18-ene], the IC50 was under 0.199 µM.

As to `CC(C)C1=C2[C@H]3CC[C@@H]4[C@@]5(C)CC[C@H](OC(=O)CC(C)(C)C(=O)O)C(C)(C)[C@@H]5CC[C@@]4(C)[C@]3(C)CC[C@@]2(NC(=O)CN2CCN(C)CC2)CC1=O` [19-54, 3β-O-(3′,3′-Dimethylsuccinyl)-17β-(4-methylpiperazine-1-acetamido)-21-oxolup-18-ene], the IC50 was under 0.199 µM.

In the case of `CC(C)C1=C2[C@H]3CC[C@@H]4[C@@]5(C)CC[C@H](OC(=O)CC(C)(C)C(=O)O)C(C)(C)[C@@H]5CC[C@@]4(C)[C@]3(C)CC[C@@]2(NC(=O)[C@H]2CCCN2C)CC1=O` [19-55], the IC50 was under 0.199 µM.

Still in this assay, the particulars now being: Human immunodeficiency virus 1, MT2 cells, without human serum, average IC50 if tested more than once, read-out: MT2 (HIVIIIB) IC50 range.
Turning to `CC(C)C1=C2C3CCC4[C@@]5(C)CC[C@H](OC(=O)CC(C)(C)C(=O)O)C(C)(C)C5CC[C@@]4(C)[C@]3(C)CC[C@@]2(NC(=O)C2CCCCC2)CC1=O` (stereo partly drawn) [19-33, 3β-O-(3′,3′-Dimethylsuccinyl)-17β-cyclohexylamido-21-oxolup-18-ene], the IC50 is under 0.199 µM.

As to `CC(C)C1=C2[C@H]3CC[C@@H]4[C@@]5(C)CC[C@H](OC(=O)CC(C)(C)C(=O)O)C(C)(C)[C@@H]5CC[C@@]4(C)[C@]3(C)CC[C@@]2(NC(=O)c2ccnn2C)CC1=O` [19-34, 3β-O-(3′,3′-Dimethylsuccinyl)-17β-(1-methyl-1H-pyrazole-5-amido)-21-oxolup-18-ene], the IC50 is under 0.199 µM.

As to `CC(C)C1=C2[C@H]3CC[C@@H]4[C@@]5(C)CC[C@H](OC(=O)CC(C)(C)C(=O)O)C(C)(C)[C@@H]5CC[C@@]4(C)[C@]3(C)CC[C@@]2(NC(=O)c2cnn(C)c2)CC1=O` [19-35, 3β-O-(3′,3′-Dimethylsuccinyl)-17β-(1-methyl-1H-pyrazole-4-amido)-21-oxolup-18-ene], the IC50 was under 0.199 µM.
